Results reported in publication PMC10809502, “Application of a new MDCKII-MDR1 cell model to measure the extent of drug distribution in vitro at equilibrium for prediction of in vivo unbound brain-to-plasma drug distribution” (Fluids and Barriers of the CNS, 2024).
Like-named read-outs stand apart in the source and are kept apart here.

How the values were obtained:
P-gp (human MDR1) [1] = test: Equilibrium distribution study (in vitro Kp,brain / Kp,uu,brain) across MDCKII-MDR1 cells, BSA apical, brain homogenate basolateral, Uni-L and Bi-L; conditions: dog; for Kp at 29 h, 1 μM: brain homogenate/BSA ratio
[2] = target: T1, Bovine Serum Albumin (BSA) (Bos taurus, UniProt P02769); test: Fraction unbound in 35 μM BSA, equilibrium dialysis; conditions: for fraction unbound at 5 h, 1 μM: bovine; for Predicted fu (%) BSA 35 μM (D = 20): calculated with Eq. 2 from fu measured in 100% matrices (ref 20), dilution factor 20
T1 sequence (P02769 25-607): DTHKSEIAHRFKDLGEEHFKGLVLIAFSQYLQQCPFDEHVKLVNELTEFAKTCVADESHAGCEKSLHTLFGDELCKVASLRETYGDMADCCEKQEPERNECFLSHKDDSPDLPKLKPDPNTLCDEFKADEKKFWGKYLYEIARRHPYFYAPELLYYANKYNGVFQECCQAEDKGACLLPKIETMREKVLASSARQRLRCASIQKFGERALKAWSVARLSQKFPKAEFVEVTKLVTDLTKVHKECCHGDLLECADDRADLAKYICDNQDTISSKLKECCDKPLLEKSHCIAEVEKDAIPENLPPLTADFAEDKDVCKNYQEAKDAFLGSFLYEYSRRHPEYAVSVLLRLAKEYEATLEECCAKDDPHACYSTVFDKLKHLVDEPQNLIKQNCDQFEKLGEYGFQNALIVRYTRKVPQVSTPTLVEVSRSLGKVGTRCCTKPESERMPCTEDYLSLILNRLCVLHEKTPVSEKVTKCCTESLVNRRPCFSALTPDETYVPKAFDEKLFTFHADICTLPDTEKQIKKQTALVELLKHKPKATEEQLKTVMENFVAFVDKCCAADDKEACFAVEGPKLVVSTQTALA

[3] = Fraction unbound in 20-fold diluted brain homogenate, equilibrium dialysis; conditions: for fraction unbound at 5 h, 1 μM: Göttingen, minipig, pH 7.4; for Predicted fu (%) Brain (D = 20): calculated with Eq. 2 from fu measured in 100% matrices (ref 20), dilution factor 20
P-gp (human MDR1) [4] = test: in vitro; conditions: dog
[5] = cited from earlier work
[6] = target: T1, Bovine Serum Albumin (BSA); test: Fraction unbound in 700 μM BSA in phosphate buffer; format: in vitro ADME; design: BSA (purity > 98%) was obtained from Beijing SeaskyBio Technology Co. Ltd; purchased Beijing SeaskyBio Technology Co. Ltd. BSAS (Lot 541); conditions: read-out: fu, 700 μM BSA
[7] = brain homogenate
[8] = target: T1, Bovine Serum Albumin (BSA); conditions: isolated protein
[9] = target: T1, Bovine Serum Albumin (BSA); test: in vitro; conditions: isolated protein
in vitro = conditions: Göttingen, minipig, brain homogenate, pH 7.4
P-gp (human MDR1) [10] = test: in vitro; conditions: dog; remark: listed apart in the source
MDCKII-MDR1 cell line = system: MDCKII-MDR1 cell line; design: method as in PMID 34756975, PMID 15236458; conditions: cited from earlier work
[11] = MDCK-MDR1, pH 7.5, in vitro determined Kp,brain Bi-L, Bi-L (compound loaded both sides), 29 h
[12] = MDCK-MDR1, pH 7.5, in vitro determined Kp,brain Uni-L, Uni-L (compound loaded apically in BSA), 29 h
[13] = pH 7.5, Recovery Bi-L, mass balance Eq. 7, Bi-L, 29 h, % printed
[14] = pH 7.5, Recovery Uni-L, mass balance Eq. 6, Uni-L, 29 h, % printed
[15] = pH 7.5, assay recovery, equilibrium distribution experiment, setup (Uni-L/Bi-L) not given
[16] = 20-fold diluted brain homogenate
[17] = MDCK-MDR1, pH 7.4, with an inhibitor present (name and concentration not stated)

Row | SMILES | Kp at 29 h, 1 μM (P-gp (human MDR1) [1]; [11]) | Kp at 29 h, 1 μM (P-gp (human MDR1) [1]; [12]) | recovery at 29 h, 1 μM (P-gp (human MDR1) [1]; [13]) | recovery at 29 h, 1 μM (P-gp (human MDR1) [1]; [14]) | fraction unbound at 5 h, 1 μM ([2]; 35 μM BSA) | Predicted fu (%) BSA 35 μM (D = 20) [2] | fraction unbound at 5 h, 1 μM [3, 16] | Predicted fu (%) Brain (D = 20) [3] | Papp B→A at 60 min, 0.5 μM (P-gp (human MDR1) [4]; MDCK-MDR1, pH 7.4) | efflux ratio at 60 min, 0.5 μM (P-gp (human MDR1) [4]; MDCK-MDR1, pH 7.4) | Kp,uu,brain in vivo ([5]; Göttingen minipig) | other results
1 | CN(C)CCC=C1c2ccccc2COc2ccccc21 [Doxepin, doxepin] | 2.2 | 2.2 | 54% | 59% | 0.922 ± 0.029 | 87.1% | 0.248 ± 0.05 | 33.0% | 2.2 ± 0.1 ×10⁻⁶ cm/s | 1.1 | – | recovery at 29 h, 1 μM (P-gp (human MDR1) [1]; [15]): ~50%; Papp A→B at 60 min, 0.5 μM (P-gp (human MDR1) [4]; MDCK-MDR1, pH 7.4): 2 ± 0.1 ×10⁻⁶ cm/s; recovery at 60 min, 0.5 μM (P-gp (human MDR1) [4]; MDCKII-MDR1 cell monolayers (transfected with human MDR1), pH 7.4): ~50%
2 | O=C(c1ccc(F)cc1)C1CCN(CCn2c(=S)[nH]c3ccccc3c2=O)CC1 [Altanserin] | 1.49 | 1.48 | 17% | 18% | 0.451 ± 0.035 | 26.8% | 0.229 ± 0.014 | 22.1% | 3.4 ± 0.3 ×10⁻⁶ cm/s | 1.1 | 0.85 | recovery at 29 h, 1 μM (P-gp (human MDR1) [1]; [15]): ~20%
3 | NCC1(CC(=O)O)CCCCC1 [Gabapentin, gabapentin] | 0.9 | 0.11 | 86% | 85% | – | 99.8% | – | 93.4% | 1.6 ± 0.2 ×10⁻⁶ cm/s | 0.5 | 0.13 | fraction unbound at 5 h, 1 μM ([2]; isolated protein): 0.984 ± 0.062; fraction unbound at 5 h, 1 μM ([3]; brain homogenate): 0.946 ± 0.015
4 | COc1ccc2c(c1)c(CC(=O)O)c(C)n2C(=O)c1ccc(Cl)cc1 [Indomethacin, indomethacin] | 0.78 | 0.88 | 69% | 73% | – | – | 0.358 ± 0.08 | 42.8% | 2.7 ± 0.3 ×10⁻⁶ cm/s | – | 0.13 | Kp uu at 29 h, 1 μM (P-gp (human MDR1) [1]; MDCK-MDR1, pH 7.5): ≥ 1
5 | CCN(CC)CCNC(=O)c1cc(Cl)c(N)cc1OC [Metoclopramide, metoclopramide] | 0.96 | 1 | 66% | 66% | > 1 | 98.8% | 0.878 ± 0.038 | 90.7% | 49 ± 3 ×10⁻⁶ cm/s | 2 | – | fraction unbound at 5 h, 1 μM [6]: 0.904
6 | CN(C)CCCC1(c2ccc(F)cc2)OCc2cc(C#N)ccc21 (stereo not drawn) [Citalopram, citalopram] | 1.5 | 1.5 | 67% | 73% | 0.973 ± 0.027 | 96.0% | 0.513 ± 0.066 | 47.9% | 7.7 ± 0.3 ×10⁻⁶ cm/s | 1.7 | 0.90 | –
7 | Cc1cc(=O)n(-c2ccccc2)n1C [Antipyrine, antipyrine] | – | – | – | – | – | – | – | – | 48 ± 3 ×10⁻⁶ cm/s | 1.2 | – | Kp,uu,brain in vivo ([5]; minipig, in vivo): 0.80; Predicted fu (%) Brain (D = 20) [7]: > 100%; Predicted fu (%) BSA 35 μM (D = 20) [8]: 99.9%; fraction unbound at 5 h, 1 μM [9]: > 1; fraction unbound at 5 h, 1 μM (in vitro): 0.843 ± 0.042; Kp at 29 h, 1 μM (P-gp (human MDR1) [10]; MDCK-MDR1, pH 7.5, in vitro determined Kp,brain Bi-L): 1.2; Kp at 29 h, 1 μM (P-gp (human MDR1) [10]; MDCK-MDR1, pH 7.5, in vitro determined Kp,brain Uni-L): 1.2; recovery at 29 h, 1 μM (P-gp (human MDR1) [10]; pH 7.5, Recovery Bi-L): 77%; recovery at 29 h, 1 μM (P-gp (human MDR1) [10]; pH 7.5, Recovery Uni-L): 77%; Kp,uu,brain in Vitro Uni-L (Det. fu) (MDCKII-MDR1 cells; dog, 29 h, 1 μM, pH 7.5): 1.05; Kp,uu,brain in Vitro Uni-L (Pre.fu) (MDCKII-MDR1 cells; dog, 29 h, 1 μM, pH 7.5): 1.24
8 | CN/C(=N/CCSCc1nc[nH]c1C)NC#N [Cimetidine, cimetidine] | 0.6 | 0.19 | 78% | 73% | > 1 | 99.2% | 0.938 ± 0.05 | 95.6% | 2.5 ± 0.2 ×10⁻⁶ cm/s | – | 0.02 | Papp A→B at 60 min, 0.5 μM (P-gp (human MDR1) [4]; MDCK-MDR1, pH 7.4): < 1 ×10⁻⁶ cm/s
9 | O=C1CC2(CCCC2)CC(=O)N1CCCCN1CCN(c2ncccn2)CC1 [Buspirone, buspirone] | – | – | 71% | 76% | – | – | – | – | 20 ± 3 ×10⁻⁶ cm/s | – | – | –
10 | OC[C@@H](O)[C@@H](O)[C@H](O)[C@H](O)CO [mannitol] | – | – | – | – | – | – | – | – | – | – | – | mannitol flux (MDCKII-MDR1 cell line): 1–7 10^–7 cm/s
11 | CNCCC(Oc1ccc(C(F)(F)F)cc1)c1ccccc1 (stereo not drawn) [Fluoxetine, fluoxetine] | – | – | – | – | 0.66 ± 0.032 | 70.6% | 0.052 ± 0.005 | 5.7% | – | – | – | –
12 | COc1ccccc1N1CCN(CCN(C(=O)C2CCCCC2)c2ccccn2)CC1 [Way-100635] | – | – | – | – | – | 87.1% | – | 71.8% | – | – | 0.40 | Determined fu (%) BSA 35 μM (D = 20) ([2]; 35 μM BSA, 1 μM, 5 h, 37 ℃, Eq. 1, mean ± SD N=3): 80.2 ± 0.9%; Determined fu (%) Brain (D = 20) ([3]; 20-fold diluted brain homogenate, 1 μM, 5 h, 37 ℃, Eq. 1, mean ± SD N=3): 74.8 ± 8.0%; Kp,uu,brain in Vitro Uni-L (Det. fu) (MDCKII-MDR1 cells): 1.09; Kp,uu,brain in Vitro Uni-L (Pre.fu) (MDCKII-MDR1 cells): 0.96; assay recovery, equilibrium distribution experiment (MDCKII-MDR1 cells): around 50%; in vitro Kp,uu,brain (MDCKII-MDR1 cells; dog, MDCK-MDR1): ~ 1
13 | CC(C)NCC(O)COc1cccc2ccccc12 (stereo not drawn) [Propranolol, propranolol] | 1.9 | 2.2 | 21% | 25% | 0.897 ± 0.018 | 86.8% | 0.35 ± 0.012 | 37.4% | 3.7 ± 0.1 ×10⁻⁶ cm/s | 0.8 | 0.76 | recovery at 29 h, 1 μM (P-gp (human MDR1) [1]; [15]): ~20%
14 | Clc1ccc2c(c1)N=C(N1CCNCC1)c1ccccc1N2 [N-desmethylclozapine] | 4.2 | 4.2 | 53% | 62% | 0.892 ± 0.029 | 82.1% | 0.131 ± 0.006 | 13.9% | 4.4 ± 0.3 ×10⁻⁶ cm/s | 2.1 | 0.71 | classification of brain penetration in vivo ([5]; Göttingen minipig Kp,uu,brain): unrestricted (unrestricted brain penetration with Kp,uu,brain > 0.7); recovery at 29 h, 1 μM (P-gp (human MDR1) [1]; [15]): ~50%; Papp A→B at 60 min, 0.5 μM (P-gp (human MDR1) [4]; [17]): 3.6 ×10⁻⁶ cm/s; Papp B→A at 60 min, 0.5 μM (P-gp (human MDR1) [4]; [17]): 2.9 ×10⁻⁶ cm/s
